Laboratory results reported in patent US20020002171A1, “Materials and methods for killing nematodes and nematode eggs” (priority 2000, published 2002).

The compounds below were run on Caenorhabditis elegans (assay: C. elegans L1 nematicidal dose response in 96-well plates, 5 day visual score (Example 2; same procedure for Example 7, Table 3)). Conditions: 0.3 μM, C. elegans L1, scored day 5.
Format: in vivo
Set-up: key to 5 Day Visual Score V1 / 5 Day Visual Score V2 / 5 Day Visual Score V3 / 5 Day Visual Score V4 / 5 Day Visual Score V6 / 5 Day Visual Score V5 / Initial HTS Run Visual Score / Follow-up HTS Run Visual Score: Dead: only stiff L1s (no movement); Dead (L4): worms are dead, but at a later larval stage; majority of worms are L1 (based on size) worms move when plate is tapped; majority of worms are L2 (based on size); majority of worms are L3 (based on size); majority of worms are L4 (based on size); AD: majority of worms are adult; #AD: 5 adult worms or less; B!: sterile (0-25 progeny); B: low broodsize (25-100 progeny); ˜B: moderate broodsize (100-250 progeny); <: reduced broodsize (250-500 progeny); OK: no effect (˜1000+ progeny)
Procedure, shortened: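 L1 larvae, 20 per well in NGM with 1% E. coli HB101 and antibiotic/antimycotic, exposed to six 3-fold dilutions from 70 μM down to 0.3 μM (1.4% DMSO at top). Held at 20° C; viability scored visually under 100× dissecting microscope on day 5.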

Compound	5 Day Visual Score V6
Cc1ccc(C(CC(=O)c2ccccc2)Nc2ccc(I)cc2)o1 (stereo not shown) [AKC 128]	OK (no effect (˜1000+ progeny))
O=C(NCCc1ccccc1F)C1C(c2ccccc2Cl)=NOC1c1ccc(-c2ccccc2)cc1 (stereo not shown) [AKC 110]	L1
COc1ccccc1-c1noc(C(C)CNC(=O)Nc2ccc(OC(F)(F)F)cc2)n1 (stereo not shown) [AKC 111]	OK (no effect (˜1000+ progeny))
CCOc1ccc(C2ON=C(c3ccc(F)cc3)C2C(=O)NCCc2ccc(F)cc2)cc1 (stereo not shown) [AKC 122]	OK (no effect (˜1000+ progeny))

Same assay, conditions: 0.9 μM, C. elegans L1, scored day 5

Compound	5 Day Visual Score V5
Cc1ccc(C(CC(=O)c2ccccc2)Nc2ccc(I)cc2)o1 (stereo not shown) [AKC 128]	#AD/˜B
O=C(NCCCCCc1nc(-c2ccccc2)no1)Nc1ccc(OC(F)(F)F)cc1 [AKC 115]	Dead(L2/L
O=C(NCCc1ccccc1F)C1C(c2ccccc2Cl)=NOC1c1ccc(-c2ccccc2)cc1 (stereo not shown) [AKC 110]	L1

Same assay, conditions: 2.6 μM, C. elegans L1, scored day 5

Compound	5 Day Visual Score V4
Cc1ccc(C(CC(=O)c2ccccc2)Nc2ccc(I)cc2)o1 (stereo not shown) [AKC 128]	L1
O=C(NCCCCCc1nc(-c2ccccc2)no1)Nc1ccc(OC(F)(F)F)cc1 [AKC 115]	Dead(L2)
O=C(NCCc1ccccc1F)C1C(c2ccccc2Cl)=NOC1c1ccc(-c2ccccc2)cc1 (stereo not shown) [AKC 110]	L1
CCOc1cccc(C2ON=C(c3ccccc3OCC)C2C(=O)NCc2ccc(OC(F)(F)F)cc2)c1 (stereo not shown) [AKC 125]	L2
COc1ccccc1-c1noc(C(C)CNC(=O)Nc2ccc(OC(F)(F)F)cc2)n1 (stereo not shown) [AKC 111]	Dead(L3/L

Same assay, conditions: 7.8 μM, C. elegans L1, scored day 5

Compound	5 Day Visual Score V3
Cc1ccc(C(CC(=O)c2ccccc2)Nc2ccc(I)cc2)o1 (stereo not shown) [AKC 128]	Dead
O=C(NCCCCCc1nc(-c2ccccc2)no1)Nc1ccc(OC(F)(F)F)cc1 [AKC 115]	L2/Dead(L2)
O=C(NCCc1ccccc1F)C1C(c2ccccc2Cl)=NOC1c1ccc(-c2ccccc2)cc1 (stereo not shown) [AKC 110]	L1
CCOc1cccc(C2ON=C(c3ccccc3OCC)C2C(=O)NCc2ccc(OC(F)(F)F)cc2)c1 (stereo not shown) [AKC 125]	L2
COc1ccccc1-c1noc(C(C)CNC(=O)Nc2ccc(OC(F)(F)F)cc2)n1 (stereo not shown) [AKC 111]	L2

Same assay, conditions: 23.3 μM, C. elegans L1, scored day 5

Compound	5 Day Visual Score V2
Cc1ccc(C(CC(=O)c2ccccc2)Nc2ccc(I)cc2)o1 (stereo not shown) [AKC 128]	Dead
O=C(NCCCCCc1nc(-c2ccccc2)no1)Nc1ccc(OC(F)(F)F)cc1 [AKC 115]	Dead(L2/L3)
O=C(NCCc1ccccc1F)C1C(c2ccccc2Cl)=NOC1c1ccc(-c2ccccc2)cc1 (stereo not shown) [AKC 110]	L1
CCOc1cccc(C2ON=C(c3ccccc3OCC)C2C(=O)NCc2ccc(OC(F)(F)F)cc2)c1 (stereo not shown) [AKC 125]	L2/Dead(L4)
COc1ccccc1-c1noc(C(C)CNC(=O)Nc2ccc(OC(F)(F)F)cc2)n1 (stereo not shown) [AKC 111]	Dead
CCOc1ccc(C2ON=C(c3ccc(F)cc3)C2C(=O)NCCc2ccc(F)cc2)cc1 (stereo not shown) [AKC 122]	L1

Same assay, conditions: 70 μM, C. elegans L1, scored day 5

Compound	5 Day Visual Score V1
Cc1ccc(C(CC(=O)c2ccccc2)Nc2ccc(I)cc2)o1 (stereo not shown) [AKC 128]	Dead
O=C(NCCCCCc1nc(-c2ccccc2)no1)Nc1ccc(OC(F)(F)F)cc1 [AKC 115]	Dead
O=C(NCCc1ccccc1F)C1C(c2ccccc2Cl)=NOC1c1ccc(-c2ccccc2)cc1 (stereo not shown) [AKC 110]	L1
CCOc1cccc(C2ON=C(c3ccccc3OCC)C2C(=O)NCc2ccc(OC(F)(F)F)cc2)c1 (stereo not shown) [AKC 125]	L2/Dead(L3)
COc1ccccc1-c1noc(C(C)CNC(=O)Nc2ccc(OC(F)(F)F)cc2)n1 (stereo not shown) [AKC 111]	Dead
CCOc1ccc(C2ON=C(c3ccc(F)cc3)C2C(=O)NCCc2ccc(F)cc2)cc1 (stereo not shown) [AKC 122]	Dead

Same assay, conditions: Follow-up HTS run

Compound	Follow-up HTS Run % Run [%]	Follow-up HTS Run Visual Score	Follow-up HTS Run mOD [mOD]
CCCCN(CC)c1nc(N2CCN(c3ccc(F)cc3)CC2)ns1 [compound 236]	123	Dead	198
Fc1ccc(N2CCN(c3nc(NCCc4ccc(Oc5ccccc5)cc4)ns3)CC2)cc1 [compound 268]	96	Dead	154
CCN(c1nc(NCc2c(F)cccc2F)ns1)C1CCCCC1 [compound 297]	109	L4/AD/B	175

Same assay, conditions: Initial HTS run

Compound	Initial HTS Run % Run [%]	Initial HTS Run Visual Score	Initial HTS Run mOD [mOD]
CCCCN(CC)c1nc(N2CCN(c3ccc(F)cc3)CC2)ns1 [compound 236]	136	1AD/B	150
Fc1ccc(N2CCN(c3nc(NCCc4ccc(Oc5ccccc5)cc4)ns3)CC2)cc1 [compound 268]	128	Dead	141
CCN(c1nc(NCc2c(F)cccc2F)ns1)C1CCCCC1 [compound 297]	104	L4/AD/B!-Few Eggs	114

Same assay, conditions: dose response, dilution V1, day 5

Compound	5 Day Visual Score V1
CCCCN(CC)c1nc(N2CCN(c3ccc(F)cc3)CC2)ns1 [compound 236]	Dead
Fc1ccc(N2CCN(c3nc(NCCc4ccc(Oc5ccccc5)cc4)ns3)CC2)cc1 [compound 268]	Dead

Same assay, conditions: dose response, dilution V2, day 5

Compound	5 Day Visual Score V2
Fc1ccc(N2CCN(c3nc(NCCc4ccc(Oc5ccccc5)cc4)ns3)CC2)cc1 [compound 268]	Dead
CCN(c1nc(NCc2c(F)cccc2F)ns1)C1CCCCC1 [compound 297]	B (low broodsize (25-100 progeny))

Same assay, conditions: dose response, dilution V3, day 5

Compound	5 Day Visual Score V3
CCN(c1nc(NCc2c(F)cccc2F)ns1)C1CCCCC1 [compound 297]	OK (no effect (˜1000+ progeny))

Same assay, conditions: dose response, dilution V4, day 5

Compound	5 Day Visual Score V4
CCCCN(CC)c1nc(N2CCN(c3ccc(F)cc3)CC2)ns1 [compound 236]	< (reduced broodsize (250-500 progeny))
Fc1ccc(N2CCN(c3nc(NCCc4ccc(Oc5ccccc5)cc4)ns3)CC2)cc1 [compound 268]	L4#AD/B
CCN(c1nc(NCc2c(F)cccc2F)ns1)C1CCCCC1 [compound 297]	OK (no effect (˜1000+ progeny))

Same assay, conditions: dose response, dilution V5, day 5

Compound	5 Day Visual Score V5
CCCCN(CC)c1nc(N2CCN(c3ccc(F)cc3)CC2)ns1 [compound 236]	< (reduced broodsize (250-500 progeny))
Fc1ccc(N2CCN(c3nc(NCCc4ccc(Oc5ccccc5)cc4)ns3)CC2)cc1 [compound 268]	OK (no effect (˜1000+ progeny))
CCN(c1nc(NCc2c(F)cccc2F)ns1)C1CCCCC1 [compound 297]	OK (no effect (˜1000+ progeny))

Same assay, conditions: dose response, dilution V6, day 5

Compound	5 Day Visual Score V6
CCCCN(CC)c1nc(N2CCN(c3ccc(F)cc3)CC2)ns1 [compound 236]	OK (no effect (˜1000+ progeny))
Fc1ccc(N2CCN(c3nc(NCCc4ccc(Oc5ccccc5)cc4)ns3)CC2)cc1 [compound 268]	B (low broodsize (25-100 progeny))
CCN(c1nc(NCc2c(F)cccc2F)ns1)C1CCCCC1 [compound 297]	OK (no effect (˜1000+ progeny))
